Test system: MV-4-11 cells
Assay: Gene expression microarray analysis (Affymetrix PrimeView) and GSEA
Format: cell-based, human
Set-up: RFU PODN (11730768_x_at) / Fold change /veh PODN (11730768_x_at) / RFU LINC00158 (11744669_a_at) / Fold change /veh LINC00158 (11744669_a_at) / RFU DUSP10 (11751237_a_at) / Fold change /veh DUSP10 (11751237_a_at) / RFU ID3 (11757404_x_at) / Fold change /veh ID3 (11757404_x_at) / RFU PLEKHG5 (11737974_s_at) / Fold change /veh PLEKHG5 (11737974_s_at) / RFU LRRC4B (11730491_at) / Fold change /veh LRRC4B (11730491_at) / RFU GIMAP4 (11747438_a_at) / Fold change /veh GIMAP4 (11747438_a_at) / RFU KRT8 (11758183_x_at) / Fold change /veh KRT8 (11758183_x_at) / RFU CNN1 (11734310_a_at) / Fold change /veh CNN1 (11734310_a_at) / RFU VPS37D (11726825_at) / Fold change /veh VPS37D (11726825_at) / RFU C10orf10 (11716522_x_at) / Fold change /veh C10orf10 (11716522_x_at) / RFU KIR2DL2 /// KIR2DL4 /// KIR2DL5A /// KIR2DL5B /// KIR2DS1 /// KIR2DS2 /// KIR2DS3 /// KIR2DS4 /// KIR3DL3 /// KIR3DL3 /// KIR3DS1 (11738374_at) / Fold change /veh KIR2DL2 /// KIR2DL4 /// KIR2DL5A /// KIR2DL5B /// KIR2DS1 /// KIR2DS2 /// KIR2DS3 /// KIR2DS4 /// KIR3DL3 /// KIR3DL3 /// KIR3DS1 (11738374_at) / RFU C1QL1 (11718748_at) / Fold change /veh C1QL1 (11718748_at) / RFU TMPRSS4 (11747572_a_at) / Fold change /veh TMPRSS4 (11747572_a_at) / RFU HAMP (11756126_x_at) / Fold change /veh HAMP (11756126_x_at) / RFU RNFT2 (11725882_a_at) / Fold change /veh RNFT2 (11725882_a_at) / RFU NR4A2 (11747474_a_at) / Fold change /veh NR4A2 (11747474_a_at) / RFU ABCC12 (11746883_a_at) / Fold change /veh ABCC12 (11746883_a_at) / RFU TMEM136 (11760407_x_at) / Fold change /veh TMEM136 (11760407_x_at) / RFU CLDN22 /// WWC2 (11732394_at) / Fold change /veh CLDN22 /// WWC2 (11732394_at) / RFU HLA-DPB1 (11760878_x_at) / Fold change /veh HLA-DPB1 (11760878_x_at) / RFU SPINT1 (11716480_a_at) / Fold change /veh SPINT1 (11716480_a_at) / RFU GAP43 (11754022_s_at) / Fold change /veh GAP43 (11754022_s_at) / RFU A4GNT (11735810_at) / Fold change /veh A4GNT (11735810_at) / RFU PRB3 (11715151_x_at) / Fold change /veh PRB3 (11715151_x_at) / RFU TUBB4B (11761932_at) / Fold change /veh TUBB4B (11761932_at) / RFU CAPN14 (11732068_a_at) / Fold change /veh CAPN14 (11732068_a_at) / RFU TMCC2 (11721928_a_at) / Fold change /veh TMCC2 (11721928_a_at) / RFU IRGQ (11745062_a_at) / Fold change /veh IRGQ (11745062_a_at) / RFU FAM174B (11720279_a_at) / Fold change /veh FAM174B (11720279_a_at) / RFU TMPRSS4 (11748680_a_at) / Fold change /veh TMPRSS4 (11748680_a_at) / RFU FAM212B (11763350_a_at) / Fold change /veh FAM212B (11763350_a_at) / RFU PLEKHG5 (11743358_a_at) / Fold change /veh PLEKHG5 (11743358_a_at) / RFU ZSCAN30 (11745921_a_at) / Fold change /veh ZSCAN30 (11745921_a_at) / RFU CMKLR1 (11741424_a_at) / Fold change /veh CMKLR1 (11741424_a_at) / RFU LOC101060620 /// MAPK8IP1 (11723275_at) / Fold change /veh LOC101060620 /// MAPK8IP1 (11723275_at) / RFU SPTSSB (11747773_x_at) / Fold change /veh SPTSSB (11747773_x_at) / RFU PRSS12 (11739890_at) / Fold change /veh PRSS12 (11739890_at) / RFU BIN1 (11741810_x_at) / Fold change /veh BIN1 (11741810_x_at) / RFU WNT11 (11732464_a_at) / Fold change /veh WNT11 (11732464_a_at) / RFU C10orf10 (11716521_a_at) / Fold change /veh C10orf10 (11716521_a_at) / RFU C5orf56 (11738089_at) / Fold change /veh C5orf56 (11738089_at) / RFU CYB561 (11721691_x_at) / Fold change /veh CYB561 (11721691_x_at) / RFU ANKRD19P (11752326_a_at) / Fold change /veh ANKRD19P (11752326_a_at) / RFU OR2T12 /// OR2T33 /// OR2T8 (11738714_s_at) / Fold change /veh OR2T12 /// OR2T33 /// OR2T8 (11738714_s_at) / RFU VCAN (11748164_a_at) / Fold change /veh VCAN (11748164_a_at) / RFU JSRP1 (11732532_at) / Fold change /veh JSRP1 (11732532_at) / RFU KRTAP10-11 (11738290_x_at) / Fold change /veh KRTAP10-11 (11738290_x_at) / RFU MYO3A (11730013_a_at) / Fold change /veh MYO3A (11730013_a_at) / RFU EBF3 (11725865_a_at) / Fold change /veh EBF3 (11725865_a_at) / RFU CAMK2N1 (11719241_x_at) / Fold change /veh CAMK2N1 (11719241_x_at) / RFU C5orf56 (11738088_a_at) / Fold change /veh C5orf56 (11738088_a_at) / RFU OLFML3 (11715873_a_at) / Fold change /veh OLFML3 (11715873_a_at) / RFU LOC100653217 /// NTM (11731650_a_at) / Fold change /veh LOC100653217 /// NTM (11731650_a_at) / RFU MAPK11 (11762145_a_at) / Fold change /veh MAPK11 (11762145_a_at) / RFU FIZ1 (11724087_x_at) / Fold change /veh FIZ1 (11724087_x_at) / RFU OASL (11726364_x_at) / Fold change /veh OASL (11726364_x_at) / RFU SOX15 (11748057_x_at) / Fold change /veh SOX15 (11748057_x_at) / RFU CD79A (11719716_a_at) / Fold change /veh CD79A (11719716_a_at) / RFU HIST1H1D (11736915_at) / Fold change /veh HIST1H1D (11736915_at) / RFU CASKIN2 (11723855_a_at) / Fold change /veh CASKIN2 (11723855_a_at) / RFU LOC730098 (11760151_x_at) / Fold change /veh LOC730098 (11760151_x_at) / RFU OR4N2 (11742367_at) / Fold change /veh OR4N2 (11742367_at) / RFU PRRT2 (11749266_a_at) / Fold change /veh PRRT2 (11749266_a_at) / RFU SNX32 (11753110_a_at) / Fold change /veh SNX32 (11753110_a_at) / RFU CDHR5 (11726645_a_at) / Fold change /veh CDHR5 (11726645_a_at) / RFU RCAN1 (11760418_a_at) / Fold change /veh RCAN1 (11760418_a_at) / RFU FAM167A (11723789_a_at) / Fold change /veh FAM167A (11723789_a_at) / RFU FAM26E (11764081_at) / Fold change /veh FAM26E (11764081_at) / RFU ISYNA1 (11749810_s_at) / Fold change /veh ISYNA1 (11749810_s_at) / RFU ACY1 (11761880_at) / Fold change /veh ACY1 (11761880_at) / RFU 11764098_at / Fold change /veh 11764098_at / RFU SAMD14 (11745864_x_at) / Fold change /veh SAMD14 (11745864_x_at) / RFU NPB (11741838_a_at) / Fold change /veh NPB (11741838_a_at) / RFU TMPRSS6 (11731388_a_at) / Fold change /veh TMPRSS6 (11731388_a_at) / RFU KRTAP10-2 (11738614_at) / Fold change /veh KRTAP10-2 (11738614_at) / RFU ARHGAP8 /// PRR5-ARHGAP8 (11727945_x_at) / Fold change /veh ARHGAP8 /// PRR5-ARHGAP8 (11727945_x_at) / RFU KRTAP5-7 /// NADSYN1 (11734609_at) / Fold change /veh KRTAP5-7 /// NADSYN1 (11734609_at) / RFU RASL12 (11751679_a_at) / Fold change /veh RASL12 (11751679_a_at) / RFU CDKN2B (11736163_a_at) / Fold change /veh CDKN2B (11736163_a_at) / RFU PRF1 (11729649_at) / Fold change /veh PRF1 (11729649_at) / RFU, ZNF638 /// ZNF638-IT1 / Fold change vs veh, ZNF638 /// ZNF638-IT1 / RFU, PANK3 / Fold change vs veh, PANK3 / RFU, SH3YL1 / Fold change vs veh, SH3YL1 / RFU, ZEB2 / Fold change vs veh, ZEB2 / RFU, NRIP1 / Fold change vs veh, NRIP1 / RFU, PTTG1IP / Fold change vs veh, PTTG1IP / RFU, CAPN2 / Fold change vs veh, CAPN2 / RFU, MED14 / Fold change vs veh, MED14 / RFU, SNORA58 / Fold change vs veh, SNORA58 / RFU, C1orf63 / Fold change vs veh, C1orf63 / RFU, LRRFIP1 / Fold change vs veh, LRRFIP1 / RFU, NDUFAF7 / Fold change vs veh, NDUFAF7 / RFU, SLC12A2 / Fold change vs veh, SLC12A2 / RFU, IBTK / Fold change vs veh, IBTK / RFU, ESF1 / Fold change vs veh, ESF1 / Fold change vs veh, TMEM50B / RFU, TAOK1 / Fold change vs veh, TAOK1 / RFU, ACBD3 / Fold change vs veh, ACBD3 / RFU, TMA16 / Fold change vs veh, TMA16 / RFU, RWDD3 / Fold change vs veh, RWDD3 / RFU, BCAT1 / Fold change vs veh, BCAT1 / RFU, EDEM3 / Fold change vs veh, EDEM3 / RFU, TMEM33 / Fold change vs veh, TMEM33 / RFU, WDR75 / Fold change vs veh, WDR75 / RFU, AHCTF1 / Fold change vs veh, AHCTF1 / RFU, TFRC / Fold change vs veh, TFRC / RFU, ZDHHC17 / Fold change vs veh, ZDHHC17 / RFU, NOM1 / Fold change vs veh, NOM1 / RFU, ARL8B / Fold change vs veh, ARL8B / RFU, ZBTB11 / Fold change vs veh, ZBTB11 / RFU, TAMM41 / Fold change vs veh, TAMM41 / RFU, KIAA1704 /// LOC100996395 / Fold change vs veh, KIAA1704 /// LOC100996395 / RFU, ING1 / Fold change vs veh, ING1 / RFU, TRMT61B / Fold change vs veh, TRMT61B / RFU, FUBP3 / Fold change vs veh, FUBP3 / RFU, TP53 / Fold change vs veh, TP53 / RFU, TNKS2 / Fold change vs veh, TNKS2 / RFU, ZFP14 / Fold change vs veh, ZFP14 / RFU, ACTR2 / Fold change vs veh, ACTR2 / RFU, PPP3R1 / Fold change vs veh, PPP3R1 / RFU, PIK3R1 / Fold change vs veh, PIK3R1 / RFU, HNRNPA1 / Fold change vs veh, HNRNPA1 / RFU, RNF170 / Fold change vs veh, RNF170 / RFU, ZNF28 / Fold change vs veh, ZNF28 / RFU, RNGTT / Fold change vs veh, RNGTT / RFU, OGT / Fold change vs veh, OGT / RFU, BRD1 / Fold change vs veh, BRD1 / RFU, MARS / Fold change vs veh, MARS / RFU, ZNF655 / Fold change vs veh, ZNF655 / RFU, FAHD1 / Fold change vs veh, FAHD1 / RFU, BDP1 / Fold change vs veh, BDP1 / RFU, LRRCC1 / Fold change vs veh, LRRCC1 / RFU, ARID1A / Fold change vs veh, ARID1A / RFU, ZNF146 / Fold change vs veh, ZNF146 / RFU, ZNF330 / Fold change vs veh, ZNF330 / RFU, GPN3 / Fold change vs veh, GPN3 / RFU, C9orf123 / Fold change vs veh, C9orf123 / RFU, N4BP2L2 / Fold change vs veh, N4BP2L2 / RFU, ARFIP1 / Fold change vs veh, ARFIP1 / RFU, FAM179B / Fold change vs veh, FAM179B / RFU, BCL10 / Fold change vs veh, BCL10 / RFU, UHRF1BP1L / Fold change vs veh, UHRF1BP1L / RFU, BET1 / Fold change vs veh, BET1 / RFU, CNOT2 / Fold change vs veh, CNOT2 / RFU, ZNF268 / Fold change vs veh, ZNF268 / Fold change vs veh, ZNF507 / RFU, DGCR2 / Fold change vs veh, DGCR2 / RFU, WDSUB1 / Fold change vs veh, WDSUB1 / Fold change vs veh, HSP90B1 /// MIR3652 / RFU, ADSS / Fold change vs veh, ADSS / RFU, GK / Fold change vs veh, GK / RFU, ZNF148 / Fold change vs veh, ZNF148 / RFU, TAF9 / Fold change vs veh, TAF9 / RFU, SLC1A5 / Fold change vs veh, SLC1A5 / RFU, SLMO2 / Fold change vs veh, SLMO2 / RFU, ABCC4 / Fold change vs veh, ABCC4 / RFU, LOC101060439 /// RAP1B / Fold change vs veh, LOC101060439 /// RAP1B / RFU, RFX7 / Fold change vs veh, RFX7 / RFU, GTPBP10 / Fold change vs veh, GTPBP10 / RFU, CNEP1R1 / Fold change vs veh, CNEP1R1 / RFU, BIVM-ERCC5 /// ERCC5 / Fold change vs veh, BIVM-ERCC5 /// ERCC5 / RFU, ILF3 / Fold change vs veh, ILF3 / RFU 11762660_at / Fold change /veh 11762660_at / RFU VCAN (11757783_s_at) / Fold change /veh VCAN (11757783_s_at) / RFU DDX43 (11728927_at) / Fold change /veh DDX43 (11728927_at) / RFU KRT8 (11758188_x_at) / Fold change /veh KRT8 (11758188_x_at) / RFU NKD1 (11759106_at) / Fold change /veh NKD1 (11759106_at) / RFU SRD5A1 (11742802_a_at) / Fold change /veh SRD5A1 (11742802_a_at) / RFU TPSAB1 /// TPSB2 (11721975_s_at) / Fold change /veh TPSAB1 /// TPSB2 (11721975_s_at) / RFU GSTM3 (11746129_a_at) / Fold change /veh GSTM3 (11746129_a_at) / RFU IL23R (11737362_x_at) / Fold change /veh IL23R (11737362_x_at) / RFU TMEM51 (11727254_a_at) / Fold change /veh TMEM51 (11727254_a_at) / RFU PIWIL2 (11732686_x_at) / Fold change /veh PIWIL2 (11732686_x_at) / RFU ORM1 (11744905_x_at) / Fold change /veh ORM1 (11744905_x_at) / RFU CCDC152 (11743942_at) / Fold change /veh CCDC152 (11743942_at) / RFU ECM1 (11717891_a_at) / Fold change /veh ECM1 (11717891_a_at) / RFU IL23R (11748794_a_at) / Fold change /veh IL23R (11748794_a_at) / RFU TNFAIP8L3 (11732012_x_at) / Fold change /veh TNFAIP8L3 (11732012_x_at) / RFU MBOAT4 (11741988_at) / Fold change /veh MBOAT4 (11741988_at) / RFU 11764193_at / Fold change /veh 11764193_at / RFU TMEM53 (11763286_at) / Fold change /veh TMEM53 (11763286_at) / RFU MAGEB2 (11727129_at) / Fold change /veh MAGEB2 (11727129_at) / RFU TMEM200A (11744735_a_at) / Fold change /veh TMEM200A (11744735_a_at) / RFU CCDC152 (11751479_a_at) / Fold change /veh CCDC152 (11751479_a_at) / RFU FAM211A (11726209_a_at) / Fold change /veh FAM211A (11726209_a_at) / RFU RGS16 (11746705_a_at) / Fold change /veh RGS16 (11746705_a_at) / RFU VCAN (11755009_s_at) / Fold change /veh VCAN (11755009_s_at) / RFU RHOB (11743442_s_at) / Fold change /veh RHOB (11743442_s_at) / RFU RGS16 (11720943_a_at) / Fold change /veh RGS16 (11720943_a_at) / RFU RGS16 (11720944_at) / Fold change /veh RGS16 (11720944_at) / RFU, VPS4B / Fold change vs veh, VPS4B / RFU, CREB1 / Fold change vs veh, CREB1 / RFU, DNAJC13 / Fold change vs veh, DNAJC13 / RFU, GNAQ / Fold change vs veh, GNAQ / RFU, CDK5R1 / Fold change vs veh, CDK5R1 / RFU, ZRANB3 / Fold change vs veh, ZRANB3 / RFU, CUL4A / Fold change vs veh, CUL4A / RFU, CCNY / Fold change vs veh, CCNY / RFU, UFL1 / Fold change vs veh, UFL1 / RFU, COG3 / Fold change vs veh, COG3 / RFU, DIAPH2 / Fold change vs veh, DIAPH2 / RFU, SKA2 / Fold change vs veh, SKA2 / RFU, AFF3 / Fold change vs veh, AFF3 / RFU, LMF1 / Fold change vs veh, LMF1 / RFU, IPO11 / Fold change vs veh, IPO11 / RFU, DFFB / Fold change vs veh, DFFB / RFU, FOXP1 / Fold change vs veh, FOXP1 / RFU, CARD8 / Fold change vs veh, CARD8 / RFU, STRN3 / Fold change vs veh, STRN3 / RFU, ADK / Fold change vs veh, ADK / RFU, RASSF2 / Fold change vs veh, RASSF2 / RFU, WIPF1 / Fold change vs veh, WIPF1 / RFU, LARP1B / Fold change vs veh, LARP1B / RFU, RASA1 / Fold change vs veh, RASA1 / RFU, RB1 / Fold change vs veh, RB1 / RFU, PPFIA1 / Fold change vs veh, PPFIA1 / RFU, MAT2A / Fold change vs veh, MAT2A / RFU, CCT5 / Fold change vs veh, CCT5 / RFU, WDR92 / Fold change vs veh, WDR92 / RFU, CUX1 / Fold change vs veh, CUX1 / RFU, TTC7A / Fold change vs veh, TTC7A / RFU, TMEM135 / Fold change vs veh, TMEM135 / RFU, DEPTOR / Fold change vs veh, DEPTOR / RFU, CPM / Fold change vs veh, CPM / RFU, DNAJB6 / Fold change vs veh, DNAJB6 / RFU, CACNA2D3 / Fold change vs veh, CACNA2D3 / RFU, DTX4 / Fold change vs veh, DTX4 / RFU, TFCP2 / Fold change vs veh, TFCP2 / RFU, GMCL1 /// GMCL1P1 / Fold change vs veh, GMCL1 /// GMCL1P1 / RFU, AEBP2 / Fold change vs veh, AEBP2 / RFU, SNHG1 /// SNORD22 /// SNORD25 /// SNORD26 /// SNORD27 /// SNORD28 /// SNORD29 /// SNORD31 / Fold change vs veh, SNHG1 /// SNORD22 /// SNORD25 /// SNORD26 /// SNORD27 /// SNORD28 /// SNORD29 /// SNORD31 / Fold change (Aza/veh), C12orf56 (ProbeSet 11735607_a_at) / Fold change (ACY-1035/veh), C12orf56 (ProbeSet 11735607_a_at) / Fold change (Aza/veh), FGFR1OP (ProbeSet 11751329_s_at) / Fold change (ACY-1035/veh), FGFR1OP (ProbeSet 11751329_s_at) / Fold change (Aza/veh), VPS36 (ProbeSet 11739960_a_at) / Fold change (ACY-1035/veh), VPS36 (ProbeSet 11739960_a_at) / RFU SYPL1 (11715823_x_at) / Fold change /veh SYPL1 (11715823_x_at) / RFU IGFBP7 (11715501_s_at) / Fold change /veh IGFBP7 (11715501_s_at) / RFU REEP3 (11722064_at) / Fold change /veh REEP3 (11722064_at) / RFU IGLL1 (11728026_x_at) / Fold change /veh IGLL1 (11728026_x_at): dose or concentration left out as unconfirmed
Details: ProbeSet 11725901_x_at; LIST B

Nc1ccc(-c2cccs2)cc1NC(=O)c1ccc2c(c1)cc(C1CC1)n2CCN1CCOCC1 [ACY-1035]
Fold change vs veh, RWDD3: 0.90
